Patent US4992417A (Mount Sinai School of Medicine, priority 1988, dated 1991)
Blank lines part the entries; values can stand above or below the substance they belong to.

Experiments:
[1] = biological target: T1, insulin receptors in rat liver plasma membranes (Rattus norvegicus, UniProt P15127); assay: Insulin receptor binding assay (competition with 125I-insulin)
T1 construct: Rat liver plasma membranes were prepared as described by Horvat et al; from tissue; host or cells: rat liver plasma membranes
Method: Following incubation for 45 min at 24° C., the mixtures were diluted with 2.0 ml of ice cold 0.1M sodium phosphate, pH 7.4, containing 0.1% fraction V bovine serum albumin and immediately filtered through cellulose-acetate filters. The filters were washed twice with the ice cold buffer, dried, and then radioactivity was counted in a scintillation counter using Filtron-X®.
Inhibition of binding, expressed as per cent of maximum, was plotted as a function of competitor concentration. […] The maximum binding in these assays amounted to 8.2% of the input radioactivity.
Inhibition of binding, expressed as per cent of maximum, was plotted as a function of competitor concentration.

rat adipocytes = assay: Lipogenesis assay (conversion of [3-3H] glucose into lipids); assay type: cell-based; conditions: isolated rat adipocytes
Method: Adipocytes were prepared by incubating epididymal and perirenal fat pads obtained from male rats weighing 200-300 g with 1.0 mg/ml collagenase for 60 min at 37° C., followed by filtration through gauze and then through fine-mesh silk. Cells were washed twice by flotation in a clinical centrifuge before suspension for use. The incubation medium was Krebs-Ringer bicarbonate containing half the recommended calcium, 0.5 mM glucose, and 3% fatty acid free bovine serum albumin, with 95% O2 -5% CO2 as the gas phase. […] Cells were preincubated for 45 min at 37° C. before the addition of [3-^3 H] glucose. Incubation was continued for 60 min and stopped by the addition of 0.2 ml of 5N H2 SO4 and 0.2 ml of corn oil to aid in the extraction of lipids. Samples were extracted with 10 ml of Soluscint-0® for 30 min at room temperature before counting the radioactivity in a scintillation counter. Under these conditions, [3-^3 H] glucose was not extracted into the organic phase containing the scintillation fluors and was essentially uncounted.
Stimulation, expressed as per cent of maximum, was plotted as a function of the agonist concentration. The data points represent the mean of triplicate determinations in representative assays performed four times. […]
Stimulation, expressed as per cent of maximum, was plotted as a function of the agonist concentration. […]

[2] = tested on: Guinea pig antiserum to porcine insulin; assay: Insulin radioimmunoassay; assay type: binding; conditions: competition with 125I-insulin for anti-insulin antiserum; ratio of slopes
Method: After incubation at room temperature overnight, 0.2 ml of the precipitating antibody (goat anti-guinea pig-γ globulin) was added, and the tubes were further incubated overnight at room temperature. Immune precipitates were collected on cellulose-acetate filters and washed with two successive 1.0 mL portions of ice-cold assay buffer. Filters were dried and radioactivity was counted in a scintillation counter in Filtron-X®.

insulin receptor = insulin receptor (Homo sapiens, UniProt P06213); conditions: cited from earlier work; for potency compared with natural insulin: literature

T1 sequence (P15127 27-759 limits assumed): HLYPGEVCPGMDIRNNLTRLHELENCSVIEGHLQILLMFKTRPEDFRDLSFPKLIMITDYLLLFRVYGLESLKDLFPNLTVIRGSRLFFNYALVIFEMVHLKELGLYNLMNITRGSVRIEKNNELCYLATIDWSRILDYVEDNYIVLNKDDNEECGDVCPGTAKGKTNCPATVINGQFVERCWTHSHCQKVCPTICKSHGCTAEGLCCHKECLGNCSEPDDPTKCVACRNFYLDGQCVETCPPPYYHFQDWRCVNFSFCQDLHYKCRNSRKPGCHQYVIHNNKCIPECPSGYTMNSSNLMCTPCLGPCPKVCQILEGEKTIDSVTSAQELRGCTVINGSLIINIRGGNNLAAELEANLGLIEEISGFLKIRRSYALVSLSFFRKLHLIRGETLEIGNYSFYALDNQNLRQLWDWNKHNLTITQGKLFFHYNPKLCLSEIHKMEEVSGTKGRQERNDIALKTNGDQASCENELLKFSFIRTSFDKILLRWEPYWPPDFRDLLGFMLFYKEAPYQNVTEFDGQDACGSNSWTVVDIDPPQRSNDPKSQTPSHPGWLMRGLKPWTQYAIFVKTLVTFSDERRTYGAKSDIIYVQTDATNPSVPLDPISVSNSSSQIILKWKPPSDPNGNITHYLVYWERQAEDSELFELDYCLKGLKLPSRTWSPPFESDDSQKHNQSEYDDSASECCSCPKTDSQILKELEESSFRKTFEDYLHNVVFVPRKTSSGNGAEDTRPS

potency relative to bovine insulin (concentration ratio required to inhibit 50% of the specific binding of 125I-insulin) ([1]; rat liver plasma membranes, 45 min at 24° C., pH 7.4, assay performed four times): about 534±146% | binding to the insulin receptor, times more tightly than natural insulins ([1]; relative to natural insulins): about five times more tightly
Substance: [10-Aspartic acid-B] human insulin
maximum stimulation of lipogenesis compared with bovine insulin (rat adipocytes): full agonist | relative potency (concentration ratio required to produce 50% of the maximum stimulation of lipogenesis) relative to bovine insulin (rat adipocytes; [3-3H] glucose, 60 min, assays performed four times): 435±144% | potency in radioimmunoassay relative to bovine insulin [2]: approximately equal potency

Substance: [Lys^B10 ] insulin
potency compared with natural insulin (insulin receptor): reduced potency

Substance: des-pentapeptide(B26-B30)-[Tyr^B25 -α-carboxamide]insulin
potency greater than insulin (insulin receptor; literature (Nakagawa et al.; Casareto et al.)): 270-300%

Substance: [Asn^B10 ]- insulin
potency compared with natural insulin (insulin receptor): reduced potency

Substance: des-pentapeptide(B26-B30)-[Phe^B25 -α-carboxamide]insulin
potency compared with natural insulin (insulin receptor): comparable potency

Substance: [Leu^B10 ]- insulin
potency compared with natural insulin (insulin receptor): reduced potency
